# From PubChem BioAssay (NCI)
#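 Five concentrations, 48 hours, 96-well plates. GI50 marks 50% less growth. TGI marks complete inhibition of growth.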
# How the values were obtained:
# Test in all cases: growth of human tumour cells (NCI), 48 h
# UO-31 renal = tested on: UO-31 renal
# HL-60(TB) leukemia = tested on: HL-60(TB) leukemia
# NCI-H460 lung = tested on: NCI-H460 lung
# MALME-3M melanoma = tested on: MALME-3M melanoma
# OVCAR-3 ovarian = tested on: OVCAR-3 ovarian
# UACC-257 melanoma = tested on: UACC-257 melanoma
# RPMI-8226 leukemia = tested on: RPMI-8226 leukemia
# SK-MEL-28 melanoma = tested on: SK-MEL-28 melanoma
# NCI-H23 lung = tested on: NCI-H23 lung
# OVCAR-4 ovarian = tested on: OVCAR-4 ovarian
# SF-268 CNS = tested on: SF-268 CNS
# CCRF-CEM leukemia = tested on: CCRF-CEM leukemia
# HCT-15 colon = tested on: HCT-15 colon
# SW-620 colon = tested on: SW-620 colon
# PC-3 prostate = tested on: PC-3 prostate
# T-47D breast = tested on: T-47D breast
# DU-145 prostate = tested on: DU-145 prostate
# MOLT-4 leukemia = tested on: MOLT-4 leukemia
# A549 NSCLC = tested on: A549 NSCLC
# SK-MEL-2 melanoma = tested on: SK-MEL-2 melanoma
# IGROV1 ovarian = tested on: IGROV1 ovarian
# MDA-N = tested on: MDA-N
# K-562 leukemia = tested on: K-562 leukemia
# COLO 205 colon = tested on: COLO 205 colon
# 786-0 renal = tested on: 786-0 renal
# MCF7 breast = tested on: MCF7 breast
# SK-OV-3 ovarian = tested on: SK-OV-3 ovarian
# SNB-19 CNS = tested on: SNB-19 CNS
# NCI/ADR-RES ovarian = tested on: NCI/ADR-RES ovarian
# MDA-MB-231 breast = tested on: MDA-MB-231 breast
# A498 renal = tested on: A498 renal
# OVCAR-8 ovarian = tested on: OVCAR-8 ovarian
# LOX IMVI melanoma = tested on: LOX IMVI melanoma
# CAKI-1 renal = tested on: CAKI-1 renal
# HS 578T breast = tested on: HS 578T breast
# U251 CNS = tested on: U251 CNS
# HCC-2998 colon = tested on: HCC-2998 colon
# SNB-75 CNS = tested on: SNB-75 CNS
# ACHN renal = tested on: ACHN renal
# TK-10 renal = tested on: TK-10 renal
# KM12 colon = tested on: KM12 colon
# OVCAR-5 ovarian = tested on: OVCAR-5 ovarian
# HCT-116 colon = tested on: HCT-116 colon
# HT29 colon = tested on: HT29 colon
# SK-MEL-5 melanoma = tested on: SK-MEL-5 melanoma
# HOP-62 NSCLC = tested on: HOP-62 NSCLC
# EKVX NSCLC = tested on: EKVX NSCLC
# SN12C renal = tested on: SN12C renal
# SF-295 CNS = tested on: SF-295 CNS
# SR leukemia = tested on: SR leukemia
# HOP-92 NSCLC = tested on: HOP-92 NSCLC
# RXF 393 renal = tested on: RXF 393 renal
# SF-539 CNS = tested on: SF-539 CNS
# NCI-H522 lung = tested on: NCI-H522 lung
# M14 melanoma = tested on: M14 melanoma
# MDA-MB-435 = tested on: MDA-MB-435
# NCI-H226 lung = tested on: NCI-H226 lung
# UACC-62 melanoma = tested on: UACC-62 melanoma
smiles,measurement,setting,value
CC1CN=C(N(C(=O)Nc2ccccc2)c2ccccc2)S1 (stereo unspecified),TGI,UO-31 renal,> 100 µM
same,TGI,HL-60(TB) leukemia,66.4 µM
same,TGI,NCI-H460 lung,> 100 µM
same,TGI,MALME-3M melanoma,58.8 µM
same,TGI,OVCAR-3 ovarian,82.2 µM
same,TGI,UACC-257 melanoma,64.7 µM
same,TGI,RPMI-8226 leukemia,67.9 µM
same,TGI,SK-MEL-28 melanoma,31.9 µM
same,TGI,NCI-H23 lung,> 100 µM
same,TGI,OVCAR-4 ovarian,> 100 µM
same,TGI,SF-268 CNS,> 100 µM
same,TGI,CCRF-CEM leukemia,64 µM
same,TGI,HCT-15 colon,> 100 µM
same,TGI,SW-620 colon,> 100 µM
same,TGI,PC-3 prostate,> 100 µM
same,TGI,T-47D breast,> 100 µM
same,TGI,DU-145 prostate,> 100 µM
same,TGI,MOLT-4 leukemia,61.6 µM
same,TGI,A549 NSCLC,> 100 µM
same,TGI,SK-MEL-2 melanoma,40.5 µM
same,TGI,IGROV1 ovarian,> 100 µM
same,TGI,MDA-N,48.2 µM
same,TGI,K-562 leukemia,> 100 µM
same,TGI,COLO 205 colon,> 100 µM
same,TGI,786-0 renal,> 100 µM
same,TGI,MCF7 breast,49.7 µM
same,TGI,SK-OV-3 ovarian,> 100 µM
same,TGI,SNB-19 CNS,> 100 µM
same,TGI,NCI/ADR-RES ovarian,71.5 µM
same,TGI,MDA-MB-231 breast,> 100 µM
same,TGI,A498 renal,51.2 µM
same,TGI,OVCAR-8 ovarian,> 100 µM
same,TGI,LOX IMVI melanoma,37.4 µM
same,TGI,CAKI-1 renal,> 100 µM
same,TGI,HS 578T breast,> 100 µM
same,TGI,U251 CNS,> 100 µM
same,TGI,HCC-2998 colon,> 100 µM
same,TGI,SNB-75 CNS,> 100 µM
same,TGI,ACHN renal,> 100 µM
same,TGI,TK-10 renal,94.2 µM
same,TGI,KM12 colon,> 100 µM
same,TGI,OVCAR-5 ovarian,> 100 µM
same,TGI,HCT-116 colon,> 100 µM
same,TGI,HT29 colon,36.6 µM
same,TGI,SK-MEL-5 melanoma,31.8 µM
same,TGI,HOP-62 NSCLC,> 100 µM
same,TGI,EKVX NSCLC,> 100 µM
same,TGI,SN12C renal,62.9 µM
same,TGI,SF-295 CNS,> 100 µM
same,TGI,SR leukemia,81.5 µM
CCCc1cc2c(cc1O)CC[C@@H]1[C@@H]2CC[C@]2(C)[C@@H](O)CC[C@@H]12,TGI,HOP-92 NSCLC,33.6 µM
same,TGI,UO-31 renal,24.6 µM
same,TGI,HL-60(TB) leukemia,29.7 µM
same,TGI,NCI-H460 lung,24.4 µM
same,TGI,MALME-3M melanoma,27.9 µM
same,TGI,OVCAR-3 ovarian,24.4 µM
same,TGI,UACC-257 melanoma,25.8 µM
same,TGI,SK-MEL-28 melanoma,25.8 µM
same,TGI,NCI-H23 lung,29.2 µM
same,TGI,OVCAR-4 ovarian,32.7 µM
same,TGI,SF-268 CNS,28.6 µM
same,TGI,RXF 393 renal,22.1 µM
same,TGI,CCRF-CEM leukemia,20.9 µM
same,TGI,HCT-15 colon,18.1 µM
same,TGI,SW-620 colon,17.2 µM
same,TGI,PC-3 prostate,34.5 µM
same,TGI,T-47D breast,32.6 µM
same,GI50,DU-145 prostate,18.8 µM
same,TGI,DU-145 prostate,32.8 µM
same,TGI,MOLT-4 leukemia,20.4 µM
same,TGI,A549 NSCLC,22.9 µM
same,TGI,SF-539 CNS,24.4 µM
same,TGI,NCI-H522 lung,24.9 µM
same,TGI,SK-MEL-2 melanoma,30.2 µM
same,TGI,IGROV1 ovarian,30.2 µM
same,TGI,M14 melanoma,23 µM
same,TGI,MDA-N,6.05 µM
same,TGI,K-562 leukemia,13.6 µM
same,TGI,COLO 205 colon,34.5 µM
same,GI50,MDA-MB-435,2.19 µM
same,TGI,MDA-MB-435,5.1 µM
same,TGI,786-0 renal,26.6 µM
same,TGI,SK-OV-3 ovarian,29.1 µM
same,TGI,SNB-19 CNS,26.3 µM
same,TGI,NCI/ADR-RES ovarian,27.1 µM
same,TGI,MDA-MB-231 breast,40.8 µM
same,TGI,A498 renal,32.3 µM
same,TGI,OVCAR-8 ovarian,29.1 µM
same,TGI,LOX IMVI melanoma,24 µM
same,TGI,CAKI-1 renal,24.8 µM
same,TGI,HS 578T breast,32.3 µM
same,TGI,NCI-H226 lung,27.5 µM
same,TGI,U251 CNS,20.3 µM
same,TGI,HCC-2998 colon,33 µM
same,TGI,SNB-75 CNS,29.3 µM
same,TGI,ACHN renal,25.6 µM
same,TGI,TK-10 renal,30.1 µM
same,TGI,KM12 colon,22.6 µM
same,TGI,OVCAR-5 ovarian,34.7 µM
same,GI50,HCT-116 colon,6.54 µM
same,TGI,HCT-116 colon,19.8 µM
same,TGI,HT29 colon,31.1 µM
same,TGI,SK-MEL-5 melanoma,22.4 µM
same,GI50,HOP-62 NSCLC,16 µM
same,TGI,HOP-62 NSCLC,34.2 µM
same,TGI,EKVX NSCLC,26.2 µM
same,GI50,UACC-62 melanoma,6.02 µM
same,TGI,UACC-62 melanoma,19.4 µM
same,TGI,SN12C renal,24.7 µM
same,TGI,SF-295 CNS,17.8 µM
same,TGI,SR leukemia,13.4 µM
